Source: patent EP0341318A1, “NOVEL PLATINUM (II) COMPLEX, PROCESS FOR PREPARING THE SAME, AND THERAPEUTIC AGENT FOR MALIGNANT TUMOR” (TORAY INDUSTRIES, INC., priority 1987, dated 1989)
Where “and” joins values, the source holds several entries; their conditions need not be identical. Equal entries are not always repeated.

What was measured:
L1210 murine leukemia = test: Antitumor activity against L1210 murine leukemia in mice; assay type: in vivo, CDF1 mice; conditions: for Survival days (mean±SD): administered on 1st, 5th and 9th days after tumor inoculation, CDF1 mice, 10^5 L1210 cells i.p.; for T/C (%) / Survival rate: days 1, 5, 9; for T/C (%): L1210 in CDF1 mice; for Survival rate: Number of 30 days survival mice / group
Experimental: L1210 murine leukemia cells which were subcultured in DBA/2 mouse were inoculated intraperitoneally into CDF1 mice at 10^5 cells/mouse. Each experimental group was composed of 6-10 mice (male, 6-weeks old). Each test compound was administered three times, i.e., on the lst, 5th and 9th days after tumor inoculation. CBDCA and CDDP were used as control drugs in this experiment. Each compound was dissolved or suspended in 0.05% Tween 80 solution and administered in mice. Antitumor activity against L1210 leukemia was determined by T/C value calculated by the following equation and by the number of 30 days survival mice. [formula]
The antitumor activities of the compounds Nos. 3 to 5 of this invention were determined in the same way as in Example 6.

Slc:ICR mice = test: Acute toxicity test on mice; assay type: in vivo; conditions: intraperitoneal injection, Slc:ICR mice (male, 5 weeks old), mortality on the 14th day
Experimental: Each test compound was intraperitoneally injected into Slc:ICR mice (male, 5 weeks old). Each compound was formulated into a solution or suspension in a 0.05% Tween 80 solution. The LD50 value was calculated from mortality found on the 14th day after said injection.

Molecule	Survival days (mean±SD) (L1210 murine leukemia; Dose 1 mg/kg) [days]	T/C (%) (L1210 murine leukemia; Dose 1 mg/kg)	Survival days (mean±SD) (L1210 murine leukemia; Dose 10 mg/kg) [days]	T/C (%) (L1210 murine leukemia; Dose 10 mg/kg)	Survival days (mean±SD) (L1210 murine leukemia; Dose 25 mg/kg) [days]	T/C (%) (L1210 murine leukemia; Dose 25 mg/kg)	Survival days (mean±SD) (L1210 murine leukemia; Dose 50 mg/kg) [days]	T/C (%) (L1210 murine leukemia; Dose 50 mg/kg)	Survival days (mean±SD) (L1210 murine leukemia; Dose 100 mg/kg) [days]	T/C (%) (L1210 murine leukemia; Dose 100 mg/kg)	Survival days (mean±SD) (L1210 murine leukemia; Dose 200 mg/kg) [days]	T/C (%) (L1210 murine leukemia; Dose 200 mg/kg)	Survival rate (L1210 murine leukemia; dose 1 mg/kg)	Survival rate (L1210 murine leukemia; dose 10 mg/kg)	Survival rate (L1210 murine leukemia; dose 25 mg/kg)	Survival rate (L1210 murine leukemia; dose 50 mg/kg)	Survival rate (L1210 murine leukemia; dose 100 mg/kg)	Survival rate (L1210 murine leukemia; dose 200 mg/kg)	LD50 (Slc:ICR mice) [mg/kg]	also measured
2-(2-(2-Methoxyethoxy)ethoxy)ethyl 2,2-dimethyl-6,6,7,7,8,8,8-heptafluoro-3,5-dioxooctanoate- hydroxo(trans-l-1,2-diamino-cyclohexane)platinum(II) [Compound No. 4]	10.7 ± 2.7	127	20.8 ± 7.8	248	23.7 ± 5.9	282	11.5 ± 9.5	137	2.0 ± 0.0	24	2.0 ± 0.0	24	0/6	2/6	2/6	1/6	0/6	0/6	–	–
N.N.[Cl][Pt][Cl] [CDDP, cis-diamminedichloroplatinum(II), reference compound]	–	–	–	–	–	–	–	–	–	–	–	–	–	–	–	–	–	–	–	Survival days (mean±SD) (L1210 murine leukemia; Dose 2.5 mg/kg, 2.5 mg/kg): 14.7 ± 2.7 days and 12.0 ± 3.0 days and 13.2 ± 2.9 days; T/C (%) (L1210 murine leukemia; Dose 2.5 mg/kg): 181% and 143% and 163%; Survival days (mean±SD) (L1210 murine leukemia; Dose 5.0 mg/kg, 5 mg/kg): 18.8 ± 4.3 days and 14.3 ± 2.9 days and 13.7 ± 1.5 days and 16.0 ± 2.8 days; T/C (%) (L1210 murine leukemia; Dose 5.0 mg/kg): 232% and 170% and 163% and 198%; Survival days (mean±SD) (L1210 murine leukemia; Dose 7.5 mg/kg, 7.5 mg/kg): 18.7 ± 3.1 days and 15.5 ± 2.1 days and 14.2 ± 2.4 days; T/C (%) (L1210 murine leukemia; Dose 7.5 mg/kg): 231% and 185% and 175%; Survival rate (L1210 murine leukemia; dose 2.5 mg/kg): 0/6; Survival rate (L1210 murine leukemia; dose 5.0 mg/kg): 0/6; Survival rate (L1210 murine leukemia; dose 7.5 mg/kg): 0/6
CC(C)(C)C(=O)C=C([O-])C(F)(F)C(F)(F)C(F)(F)F.N[C@@H]1CCCC[C@H]1N.[OH-].[Pt+2] [Compound No. 1, 2,2-Dimethyl-6,6,7,7,8,8,8-heptafluoro-3,5-octanedione-hydroxo(trans-I-1,2-diaminocyclohexane)platinum(II)]	10.5 ± 1.2	130	29.5 ± 1.2	364	29.7 ± 0.5	367	24.0 ± 10.3	296	5.2 ± 1.9	64	1.7 ± 0.5	21	0/6	4/6	4/6	4/6	0/6	0/6	35	T/C (%) (L1210 murine leukemia; Dose 10 mg/kg, listed as compound No. 1, 10 mg/kg): greater than 360%; T/C (%) (L1210 murine leukemia; Dose 25 mg/kg, listed as compound No. 1, 25 mg/kg): greater than 360%; antitumor activity (L1210 murine leukemia; comparison in words with control drugs, L1210 in mice): higher than CDDP and CBDCA
3-Heptafluorobutyryl-D-camphor-hydroxo(trans-l-1,2-diaminocyclohexane)platinum(II) [Compound No. 5]	9.0 ± 0.6	111	14.7 ± 2.3	181	19.8 ± 6.1	244	15.3 ± 7.1	189	4.2 ± 1.0	52	2.0 ± 0.0	25	0/6	0/6	1/6	0/6	0/6	0/6	47	–
cis-diammine-1,1-cyclobutanedicarboxylate platinum(II) [CBDCA, reference compound]	8.3 ± 0.5	98	9.3 ± 0.5	109	10.1 ± 1.3	119	13.1 ± 2.3	156	14.1 ± 3.7	166	9.6 ± 0.7	113	0/10	0/10	0/10	0/10	0/10	0/10	–	–
N[C@@H]1CCCC[C@H]1N.O=C(O)CC(=O)C=C([O-])C(F)(F)C(F)(F)C(F)(F)F.[OH-].[Pt+2] [Compound No. 3, 6,6,7,7,8,8,8-Heptafluoro-3,5-dioxooctanoic acid hydroxo-(trans-l-1,2-diaminocyclohexane)platinum(II)]	9.7 ± 1.4	115	9.7 ± 1.4	115	11.0 ± 0.9	131	11.8 ± 0.8	140	14.0 ± 2.7	167	11.2 ± 3.7	133	0/6	0/6	0/6	0/6	0/6	0/6	>200	–
